From US4889926A, “Method for the synthesis of (2"R)-4'-O-tetra-hydropyranyladriamycim using 14-chloro-daunomycin as an intermediate” (priority 1987, dated 1989)
≈ marks a conversion by molar mass, not a printed value. Where two headings read alike, the source gives them in different places.

Tests used:
tumor = conditions: Japanese patent publication No. 47194/81 and U.S. Pat. No. 4,303,785; cited from earlier work
[1] = Storage stability in solid state; type: physicochemical; conditions: -10° C.
Description: In the above-mentioned known processes for the preparation of (2"R)-4'-O-THPADM of formula (A) in which daunomycin (DM) of formula (II) is used as the starting compound, and which are effected via the 14-bromodaunomycin of formula (V) as the intermediate product (namely the processes of the aforesaid Japanese patent application first publication "Kokai" Nos. 104,299/80 and 156,300/81), there are formed great amounts of the undesired by-products in the tetrahydropyranylation step so that the intended final compound can be obtained only in a low yield with these prior art processes. The intermediate compound, 14-bromodaunomycin is so unstable that even when it has been stored in its solid state at -10° C. for about 1 week, 14-bromodaunomycin can remain only in such an amount which is as little as about two-thirds of its initial amount before its storage, due to that the amino sugar moiety bonded to the 7-position can be cleaved to bring about the degradation of 14-bromodaunomycin.

[2] = system: murine melanoma B16 cells; assay: Growth inhibition by MTT assay, B16; type: cell-based; conditions: Mus musculus, read-out: IC50 value (50% growth inhibitory concentration), B16
Method: (§1) Antitumor activities of 14-chlorodaunomycin against various experimental tumors, including murine leukemia P-388 cells, murine leukemia P-388 cells (resistant to adriamycin), murine melanoma B16 cells, human lung cancer PC14 cells and murine leukemia L-1210 cells, were tested and evaluated in vitro by the following procedure:
(§2) The tumor cells were cultivated in RPMI 1640 medium supplemented with 10% fetal calf serum, 10μM 2-hydroxyethyldisulfide and kanamycin at 50 μg/ml (the growth medium), under air containing 5% CO2 at 37° C.
(§3) The tumor cells were incubated at initial densities of 1.5×10^4 cells/ml with murine melanoma B16; 2×10^4 cells/ml with murine leukemia P388, P388/ADR and L-1210; and 2.5×10^4 cells/ml with human lung cancer PC14 cells in the growth medium further containing graded concentrations of each test compound, for 72 hours. The IC50 value, namely the 50% growth inhibitory concentration of the tested compound was evaluated by MTT assay method (see Mosmann, T; "J. Immunol. Methods", 65, 55-63 (1983).

[3] = system: human lung cancer PC14 cells; assay: Growth inhibition by MTT assay, PC14; type: cell-based; conditions: read-out: IC50 value (50% growth inhibitory concentration), PC14
Method: as §1, §2, §3

[4] = system: murine leukemia P-388 cells (resistant to adriamycin); assay: Growth inhibition by MTT assay, P-388 resistant to adriamycin; type: cell-based; conditions: Mus musculus, read-out: IC50 value (50% growth inhibitory concentration), P-388 resistant to adriamycin
Method: as §1, §2, §3

[5] = system: murine leukemia P-388 cells; assay: Growth inhibition by MTT assay, P-388; type: cell-based; conditions: Mus musculus, read-out: IC50 value (50% growth inhibitory concentration), P-388
Method: as §1, §2, §3

[6] = Stability in solution in an organic solvent; type: physicochemical
[7] = system: murine leukemia L-1210 cells; assay: Growth inhibition by MTT assay, L-1210; type: cell-based; conditions: Mus musculus, read-out: IC50 value (50% growth inhibitory concentration), L-1210
Method: as §1, §2, §3

[8] = system: various kinds of experimental tumors; assay: Antitumor activity against various experimental tumors (in words); type: cell-based
Method: as §1, with “procedure: […]” for “procedure:”

[9] = B16, 72 hours, MTT assay, 1.5×10^4 cells/ml
[10] = PC-14, PC14, 72 hours, MTT assay, 2.5×10^4 cells/ml
[11] = P388/ADR, 72 hours, MTT assay, 2×10^4 cells/ml
[12] = P388, P-388, 72 hours, MTT assay, 2×10^4 cells/ml
[13] = L1210, L-1210, 72 hours, MTT assay, 2×10^4 cells/ml

COc1cccc2c1C(=O)c1c(O)c3c(c(O)c1C2=O)C[C@@](O)(C(=O)CO)C[C@@H]3O[C@H]1C[C@H](N)[C@H](O[C@@H]2CCCCO2)[C@H](C)O1 [4'-O-tetrahydropyranyladriamycin]
antitumor activity (tumor): has antitumor activity

COc1cccc2c1C(=O)c1c(O)c3c(c(O)c1C2=O)C[C@@](O)(C(=O)CBr)C[C@@H]3O[C@H]1C[C@H](N)[C@H](O)[C@H](C)O1 [14-bromodaunomycin]
amount remaining of its initial amount after storage ([1]; 14-bromodaunomycin (comparator intermediate), solid state, about 1 week): about two-thirds

COc1cccc2c1C(=O)c1c(O)c3c(c(O)c1C2=O)C[C@@](O)(C(=O)CCl)C[C@@H]3O[C@H]1C[C@H](N)[C@H](O)[C@H](C)O1 [14-chlorodaunomycin]
IC50 ([2]; B16, 72 h): 0.093 µg/mL (≈ 0.165 µM)
IC50 ([3]; PC-14, 72 h): 0.96 µg/mL (≈ 1.71 µM)
IC50 ([4]; P388, 72 h): 0.552 µg/mL (≈ 0.982 µM)
IC50 ([5]; P388, 72 h): 0.0963 µg/mL (≈ 0.171 µM)
decomposition rate in solution compared with 14-bromodaunomycin ([6]; organic solvent containing some water and an acidic compound, same conditions): considerably smaller than that of 14-bromodaunomycin
stability in solution in an organic solvent ([6]; solution in an organic solvent): somewhat stable
decomposition on storage ([1]; solid form, 1 week or so): no substantial decomposition
IC50 ([7]; L1210, 72 h): 0.268 µg/mL (≈ 0.477 µM)
antitumor activity [8]: remarkable antitumor activity

COc1cccc2c1C(=O)c1c(O)c3c(c(O)c1C2=O)C[C@@](O)(C(=O)CO)C[C@@H]3O[C@H]1C[C@H](N)[C@H](O)[C@H](C)O1 [Adriamycin, adriamycin]
IC50 [2, 9]: 0.101 µg/mL (≈ 0.186 µM)
IC50 [3, 10]: 0.765 µg/mL (≈ 1.41 µM)
IC50 [4, 11]: 2.06 µg/mL (≈ 3.79 µM)
IC50 [5, 12]: 0.033 µg/mL (≈ 0.0607 µM)
IC50 [7, 13]: 0.154 µg/mL (≈ 0.283 µM)

COc1cccc2c1C(=O)c1c(O)c3c(c(O)c1C2=O)C[C@@](O)(C(C)=O)C[C@@H]3O[C@H]1C[C@H](N)[C@H](O)[C@H](C)O1 [Daunomycin, daunomycin]
IC50 [2, 9]: 0.0449 µg/mL (≈ 0.0851 µM)
IC50 [3, 10]: 0.237 µg/mL (≈ 0.449 µM)
IC50 [4, 11]: 0.668 µg/mL (≈ 1.27 µM)
IC50 [5, 12]: 0.0163 µg/mL (≈ 0.0309 µM)
IC50 [7, 13]: 0.0655 µg/mL (≈ 0.124 µM)
